# Experimental data reported in EP4385495A1, “NANOSYSTEMS FOR THE ENCAPSULATION OF THERAPEUTIC AGENTS” (National Technical University of Athens, priority 2022, dated 2024).
# Assays:
# [1] = Body weight in collagenase-induced osteoarthritis rat model; type: in vivo, Wistar rats
# Method: In order to understand the anti-inflammatory and antioxidant potential of the nanoparticles of the invention in vivo an experimental animal model of osteoarthritis (OA) was established. The OA lesions were caused by matrix degradation of articular cartilage using enzymatic means, such as collagenase type-II. Following the induction of osteoarthritis, the studied nanoparticles were administered for 8 weeks in which period the morphological and behavioral changes were measured and finally histological analysis of the articular cartilage samples concluded the in vivo study.
# (§1) Healthy adult male Wistar rats (150-200 g) were used for the study, with water and food ad libitum, at a constant temperature of 22°C and controlled lighting (12 h light/12 h dark cycle).
# (§2) As far as the dispersion procedure of the injectables is concerned, all the natural compounds were dissolved in saline solution, whereas the studied nanoparticles were mechanically grinded in a mortar and pestle set with saline solution and Tween 20 (2% w/v) and heated at 36 °C before each treatment. There were six treatments administered every 10 days. At the end of the experiment rats were euthanized and both knees were collected for histological analysis.
# (§3) Rats were anesthetized with chloral hydrate. The right knee joints of Group I were injected with normal saline solution and served as a control. Animals from the groups II, III, IV, V, VI, VII were injected with collagenase type II (Clostridium histolyticum). Collagenase (125 collagen digestion unit/mg) was dissolved in saline, and it was injected intra-articularly into the right knee joint twice on days 1 and 4 of the experiment (Al-Saffar, F., H. Ganabadi and S. Fakurazi. Collagenase and sodium iodoacetate-induced experimental osteoarthritis model in Sprague dawley rats. Asian J. Sci. Res. 2: 1-13, 2009). The left knees of all animals were left untreated as a control.
# Changes in body weight and knee diameter were measured on the 1st, 4th,11th,21st,31st,41st,51st, 61st, 71st day before every injection. Knee diameter was measured using a digital caliper. […] A change in body weight is also measured as one of the parameters to assess the course of the disease in the OA animal models.
# [2] = target: T1, soybean lipoxygenase (LOX) (Glycine max, UniProt P08170); assay: Soybean lipoxygenase inhibition assay in vitro; type: biochemical
# T1 sequence (P08170 1-839): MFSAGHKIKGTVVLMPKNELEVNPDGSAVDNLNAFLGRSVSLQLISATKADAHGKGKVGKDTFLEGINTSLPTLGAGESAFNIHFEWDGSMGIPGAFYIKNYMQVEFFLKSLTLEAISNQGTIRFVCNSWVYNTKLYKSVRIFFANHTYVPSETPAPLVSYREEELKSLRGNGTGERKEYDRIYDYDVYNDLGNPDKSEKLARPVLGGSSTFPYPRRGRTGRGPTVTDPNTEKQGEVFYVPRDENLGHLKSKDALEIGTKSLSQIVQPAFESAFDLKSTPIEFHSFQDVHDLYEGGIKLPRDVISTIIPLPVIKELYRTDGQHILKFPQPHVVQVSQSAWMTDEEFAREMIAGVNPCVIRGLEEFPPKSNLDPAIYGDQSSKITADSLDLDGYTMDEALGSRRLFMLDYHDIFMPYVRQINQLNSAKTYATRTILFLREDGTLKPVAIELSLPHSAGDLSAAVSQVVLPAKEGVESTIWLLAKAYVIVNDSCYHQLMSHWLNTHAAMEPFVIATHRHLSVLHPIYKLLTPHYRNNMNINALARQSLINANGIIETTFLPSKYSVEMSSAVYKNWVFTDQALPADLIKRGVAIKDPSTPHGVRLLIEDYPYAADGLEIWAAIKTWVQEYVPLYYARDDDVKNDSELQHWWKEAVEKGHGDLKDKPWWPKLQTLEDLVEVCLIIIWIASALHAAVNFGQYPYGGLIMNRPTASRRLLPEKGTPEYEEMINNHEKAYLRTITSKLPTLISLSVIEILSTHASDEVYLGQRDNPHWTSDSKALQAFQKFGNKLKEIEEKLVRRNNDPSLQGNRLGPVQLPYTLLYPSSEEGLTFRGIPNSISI
# Method: The soybean lipoxygenase (LOX) test is a representative assay for anti-inflammatory activity since LOX is implicated in the inflammatory cascade. LOXs contain a "non-heme" iron per molecule in the catalytic active site as high-spin Fe^+2 in the native state and high-spin Fe^+3 in the activated state. […] The inhibitory activity of several LOX inhibitors, such as phenolic derivatives, can be attributed to their chelating capacity to Fe^+3. In brief, two reaction mixtures are prepared in UV cuvettes for each sample, the first reaction mixture contains LOX solution (dissolved in Tris buffer, pH 9) and the sample under examination, whereas the second reaction mixture also contained LLA solution (dissolved in 0.9% NaCl). Both reaction mixtures were measured at room temperature at 234 nm. The inhibition of LOX was measured in the presence of the same level of DMSO, which served as control.
# Table 2: Anti-inflammatory potential of the samples expressed as % inhibition of LOX
# RAW264.7 cells = assay: MTT cell viability assay; type: cell-based, mouse; conditions: for % cell viability: 24h
# Excerpt: The MTT (3-[4,5-dimethylthiazol-2-yl]-2,5 diphenyl tetrazolium bromide) assay is based on the ability of viable cells with active metabolism to convert the yellow MTT to a purple formazan product, which determines mitochondrial activity. The MTT formazan product agglomerates as an insoluble residuum within the cells, which can be solubilized (in this protocol with DMSO) for homogeneous measurement. Thus, any increase or decrease in the number of viable cells can be detected by measuring the formazan concentration reflected in the optical density (OD) measurement at 540 nm with a reference absorption of 720 nm. This assay is broadly used to measure the in vitro cytotoxic effects of drugs on cell lines or primary cells. For the experimental procedure a standard solution of MTT 1mg/mL in PBS was prepared which after filtration ([…] filter (Millipore, Carrigtwohill, Ireland)) was stored in the dark (4-8 °C) until use. In brief, RAW 264.7 cells were seeded in a 96-well plate at a density of 30.000 cells/ in 100 µL of medium per well. […] This was followed by incubation for 24 h, 48 h and 72 h. At the end of the incubation 10 µL of MTT was added to each well followed by incubation for 4 hours, for the formation of the formazan crystals. The formazan crystals were then dissolved by adding DMSO and stirring lightly for 30 min, after which the absorbance was measured in a plate reader at 540 nm with a reference absorbance of 720 nm. […] Table 4: % cell viability after treatment of RAW264.7 cells with the samples
# [3] = test system: experimental animal model of osteoarthritis (OA); assay: Slope walking test in osteoarthritis rat model; type: in vivo, Wistar rats
# Method: as §1
# As far as the dispersion procedure of the injectables is concerned, all the natural compounds were dissolved in saline solution, whereas the studied nanoparticles were mechanically grinded in a mortar and pestle set with saline solution and Tween 20 (2% w/v) and heated at 36 °C before each treatment. There were six treatments administered every 10 days.
# as §3
# (§4) For the evaluation of the effectiveness and time of release of the encapsulated compounds, all animals were subjected to a series of behavioral testing in addition to the measurements of body weight and knees diameter change. The experimental protocol of the present study followed the combination of three different behavioral tests, which are von Frey mechanical allodynia test, grid walking and slope walking test. Behavioral tests are performed in three phases, at the beginning before the start of treatment, in the middle of treatment (approximately 35-40 days) and at the end (after the 70th day).
# Walking on an inclined plane was used for the clinical assessment of motor function in rats after induction of OA. The method consists of placing the animal on an inclined plane and then measuring the time (seconds) needed for the animals to go up the walking tray.
# [4] = test system: experimental animal model of osteoarthritis (OA); assay: Grid-walking test in osteoarthritis rat model; type: in vivo, Wistar rats
# Method: as §1, §2, §3, §4
# In this test the rats were allowed to explore freely for 4 minutes in a wire grid and when one of the limbs fell below the grid surface during free walking, the observer counted the number of foot-fault errors (footslips) (Starkey, M. L., Barritt, A. W., Yip, P. K., Davies, M., Hamers, F. P. T., McMahon, S. B., & Bradbury, E. J. (2005). Assessing behavioural function following a pyramidotomy lesion of the corticospinal tract in adult mice. Experimental Neurology, 195(2), 524-539. doi:10.1016/j.expneurol.2005.0).
# [5] = 40 days (half of experimental protocol)
# [6] = 70 days (end of experimental protocol)
structure (smiles),measurement,setting,value
"C[C@@H]1O[C@@H](O[C@H]2[C@H](Oc3cc(O)c4c(c3)O[C@H](c3ccc(O)cc3)CC4=O)O[C@H](CO)[C@@H](O)[C@@H]2O)[C@H](O)[C@H](O)[C@H]1O [S1 [NAR], Naringin]",Body Weight (BW),[1]; 1st injection CO/saline (before treatment),247 g
same,Body Weight (BW),"[1]; 1st treatment, 10 mg/kg (S1, ibuprofen i.p.; nanoparticles i.a.), every 10 days",239 g
same,Body Weight (BW),[1]; 2nd injection CO/saline (before treatment),236 g
same,Body Weight (BW),"[1]; 2nd treatment, 10 mg/kg (S1, ibuprofen i.p.; nanoparticles i.a.)",247 g
same,Body Weight (BW),"[1]; 3rd treatment, 10 mg/kg (S1, ibuprofen i.p.; nanoparticles i.a.)",276 g
same,Body Weight (BW),"[1]; 4th treatment, 10 mg/kg (S1, ibuprofen i.p.; nanoparticles i.a.)",294 g
same,Body Weight (BW),"[1]; 5th treatment, 10 mg/kg (S1, ibuprofen i.p.; nanoparticles i.a.)",317 g
same,Body Weight (BW),"[1]; 6th treatment, 10 mg/kg (S1, ibuprofen i.p.; nanoparticles i.a.)",326 g
same,% Changes in Body Weight (BW),[1]; 11 days (before treatment),"-3,2%"
same,% Changes in Body Weight (BW),[1]; [5],"19,0%"
same,% Changes in Body Weight (BW),[1]; [6],"34,8%"
same,Body Weight (BW),"[1]; final, 10 mg/kg (S1, ibuprofen i.p.; nanoparticles i.a.)",333 g
same,inhibition at 25 µM,"[2]; 25 µM, 24h",7.1%
same,inhibition at 50 µM,"[2]; 50 µM, 24h",21.2%
same,inhibition at 100 µM,"[2]; 100 µM, 24h",44.6%
same,LOX inhibition at 48 and 72 h compared with 24 h (in words),[2]; 48 and 72 h,no significant difference
same,% cell viability,RAW264.7 cells; 25 µM,100%
same,% cell viability,RAW264.7 cells; 50 µM,100%
same,cytotoxicity / cell viability (in words),RAW264.7 cells; lower concentrations,full cell viability
same,Slope Walking,[3]; 11 days (before treatment),"10,3 sec"
same,Slope Walking,[3]; [5],"8,9 sec"
same,Slope Walking,[3]; [6],"8,6 sec"
same,Foot fault in grid-walk test (4 min),[4]; 11 days left paw,"3,4"
same,Foot fault in grid-walk test (4 min),[4]; 11 days right paw,"5,6"
same,Foot fault in grid-walk test (4 min),[4]; 40 days left paw,2
same,Foot fault in grid-walk test (4 min),[4]; 40 days right paw,3
same,Foot fault in grid-walk test (4 min),[4]; 70 days left paw,"2,8"
same,Foot fault in grid-walk test (4 min),[4]; 70 days right paw,"2,4"
